Experiments:
Experiment in all cases: relative viability (nuclei count vs DMSO), 5 days (fraction); higher = more cells survive
201T = tested on: 201T
Procedure, shortened: (§1)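 Relative viability equals treated-well nuclei counts divided by vehicle-well nuclei counts. Counts came from 4× images of lung cancer cell lines grown in 1536-well plates for 5 days after pin-tool dosing on the day after seeding. Dosing used one drug alone or a fixed anchor-drug dose plus five library-drug doses (not always all listed) in √10 steps, and values are medians of duplicate plates.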

ABC-1 = tested on: ABC-1
Procedure, shortened: as §1

ChaGo-K-1 = tested on: ChaGo-K-1
Procedure, shortened: as §1

EKVX = tested on: EKVX
Procedure, shortened: as §1

EMC-BAC-2 = tested on: EMC-BAC-2
Procedure, shortened: as §1

HCC-44 = tested on: HCC-44
Procedure, shortened: as §1

HCC-78 = tested on: HCC-78
Procedure, shortened: as §1

HOP-62 = tested on: HOP-62
Procedure, shortened: as §1

LC-2-ad = tested on: LC-2-ad
Procedure, shortened: as §1

LK-2 = tested on: LK-2
Procedure, shortened: as §1

NCI-H1355 = tested on: NCI-H1355
Procedure, shortened: as §1

NCI-H2009 = tested on: NCI-H2009
Procedure, shortened: as §1

NCI-H2228 = tested on: NCI-H2228
Procedure, shortened: as §1

NCI-H2347 = tested on: NCI-H2347
Procedure, shortened: as §1

NCI-H3122 = tested on: NCI-H3122
Procedure, shortened: as §1

NCI-H838 = tested on: NCI-H838
Procedure, shortened: as §1

PC-14 = tested on: PC-14
Procedure, shortened: as §1

RERF-LC-KJ = tested on: RERF-LC-KJ
Procedure, shortened: as §1

SK-MES-1 = tested on: SK-MES-1
Procedure, shortened: as §1

SW 1573 = tested on: SW 1573
Procedure, shortened: as §1

SW 900 = tested on: SW 900
Procedure, shortened: as §1

UMC-11 = tested on: UMC-11
Procedure, shortened: as §1

## COCC1(CO)C(=O)C2CCN1CC2 (stereo not given) [PRIMA-1MET] + COc1cccc2cc(-c3nc([C@H]4CC[C@H](C(=O)O)CC4)n4ncnc(N)c34)[nH]c12 [OSI-027] (partner 0.5 µM)
201T; first compound 0.2 µM
  relative viability: 0.82
201T; first compound 0.6325 µM
  relative viability: 0.702
201T; first compound 2 µM
  relative viability: 0.591
201T; first compound 6.325 µM
  relative viability: 0.759
201T; first compound 20 µM
  relative viability: 0.747
ABC-1; first compound 0.2 µM
  relative viability: 0.37
ABC-1; first compound 0.6325 µM
  relative viability: 0.401
ABC-1; first compound 2 µM
  relative viability: 0.349
ABC-1; first compound 6.325 µM
  relative viability: 0.48
ABC-1; first compound 20 µM
  relative viability: 0.0792
ChaGo-K-1; first compound 0.2 µM
  relative viability: 0.581
ChaGo-K-1; first compound 0.6325 µM
  relative viability: 0.518
ChaGo-K-1; first compound 2 µM
  relative viability: 0.522
ChaGo-K-1; first compound 6.325 µM
  relative viability: 0.53
ChaGo-K-1; first compound 20 µM
  relative viability: 0.448
EKVX; first compound 0.2 µM
  relative viability: 0.915
EKVX; first compound 0.6325 µM
  relative viability: 0.723
EKVX; first compound 6.325 µM
  relative viability: 0.78
EKVX; first compound 20 µM
  relative viability: 0.695
EMC-BAC-2; first compound 0.2 µM
  relative viability: 0.509
EMC-BAC-2; first compound 0.6325 µM
  relative viability: 0.385
EMC-BAC-2; first compound 6.325 µM
  relative viability: 0.366
EMC-BAC-2; first compound 20 µM
  relative viability: 0.322
HCC-44; first compound 0.2 µM
  relative viability: 0.584
HCC-44; first compound 0.6325 µM
  relative viability: 0.472
HCC-44; first compound 2 µM
  relative viability: 0.383
HCC-44; first compound 6.325 µM
  relative viability: 0.397
HCC-44; first compound 20 µM
  relative viability: 0.485
HCC-78; first compound 0.2 µM
  relative viability: 0.385
HCC-78; first compound 0.6325 µM
  relative viability: 0.345
HCC-78; first compound 6.325 µM
  relative viability: 0.339
HCC-78; first compound 20 µM
  relative viability: 0.199
HOP-62; first compound 0.2 µM
  relative viability: 0.965
HOP-62; first compound 0.6325 µM
  relative viability: 0.808
HOP-62; first compound 2 µM
  relative viability: 0.757
HOP-62; first compound 6.325 µM
  relative viability: 0.88
HOP-62; first compound 20 µM
  relative viability: 0.754
LC-2-ad; first compound 0.2 µM
  relative viability: 0.854
LC-2-ad; first compound 2 µM
  relative viability: 0.729
LC-2-ad; first compound 6.325 µM
  relative viability: 0.898
LC-2-ad; first compound 20 µM
  relative viability: 0.819
LK-2; first compound 0.2 µM
  relative viability: 0.201
LK-2; first compound 0.6325 µM
  relative viability: 0.186
LK-2; first compound 2 µM
  relative viability: 0.155
LK-2; first compound 6.325 µM
  relative viability: 0.149
LK-2; first compound 20 µM
  relative viability: 0.118
NCI-H1355; first compound 0.2 µM
  relative viability: 0.361
NCI-H1355; first compound 0.6325 µM
  relative viability: 0.353
NCI-H1355; first compound 2 µM
  relative viability: 0.316
NCI-H1355; first compound 6.325 µM
  relative viability: 0.389
NCI-H1355; first compound 20 µM
  relative viability: 0.406
NCI-H2009; first compound 0.2 µM
  relative viability: 0.699
NCI-H2009; first compound 0.6325 µM
  relative viability: 0.578
NCI-H2009; first compound 2 µM
  relative viability: 0.643
NCI-H2009; first compound 6.325 µM
  relative viability: 0.67
NCI-H2009; first compound 20 µM
  relative viability: 0.0063
NCI-H2228; first compound 0.2 µM
  relative viability: 0.578
NCI-H2228; first compound 0.6325 µM
  relative viability: 0.462
NCI-H2228; first compound 2 µM
  relative viability: 0.442
NCI-H2228; first compound 6.325 µM
  relative viability: 0.481
NCI-H2228; first compound 20 µM
  relative viability: 0.0285
NCI-H2347; first compound 0.2 µM
  relative viability: 0.428
NCI-H2347; first compound 0.6325 µM
  relative viability: 0.496
NCI-H2347; first compound 2 µM
  relative viability: 0.247
NCI-H2347; first compound 6.325 µM
  relative viability: 0.336
NCI-H2347; first compound 20 µM
  relative viability: 0.311
NCI-H3122; first compound 0.2 µM
  relative viability: 0.594
NCI-H3122; first compound 0.6325 µM
  relative viability: 0.871
NCI-H3122; first compound 6.325 µM
  relative viability: 0.74
NCI-H3122; first compound 20 µM
  relative viability: 0.831
NCI-H838; first compound 0.2 µM
  relative viability: 0.428
NCI-H838; first compound 0.6325 µM
  relative viability: 0.5
NCI-H838; first compound 2 µM
  relative viability: 0.295
NCI-H838; first compound 6.325 µM
  relative viability: 0.395
NCI-H838; first compound 20 µM
  relative viability: 0.0935
PC-14; first compound 0.2 µM
  relative viability: 1.01
PC-14; first compound 0.6325 µM
  relative viability: 0.779
PC-14; first compound 2 µM
  relative viability: 0.975
PC-14; first compound 6.325 µM
  relative viability: 0.848
PC-14; first compound 20 µM
  relative viability: 0.0163
RERF-LC-KJ; first compound 0.2 µM
  relative viability: 0.56
RERF-LC-KJ; first compound 0.6325 µM
  relative viability: 0.625
RERF-LC-KJ; first compound 2 µM
  relative viability: 0.54
RERF-LC-KJ; first compound 6.325 µM
  relative viability: 0.662
RERF-LC-KJ; first compound 20 µM
  relative viability: 0.588
SK-MES-1; first compound 0.2 µM
  relative viability: 0.65
SK-MES-1; first compound 0.6325 µM
  relative viability: 0.711
SK-MES-1; first compound 2 µM
  relative viability: 0.543
SK-MES-1; first compound 6.325 µM
  relative viability: 0.633
SK-MES-1; first compound 20 µM
  relative viability: 0.436
SW 1573; first compound 0.2 µM
  relative viability: 0.622
SW 1573; first compound 0.6325 µM
  relative viability: 0.482
SW 1573; first compound 2 µM
  relative viability: 0.597
SW 1573; first compound 6.325 µM
  relative viability: 0.0316
SW 1573; first compound 20 µM
  relative viability: 0.032
SW 900; first compound 0.2 µM
  relative viability: 0.54
SW 900; first compound 0.6325 µM
  relative viability: 0.451
SW 900; first compound 2 µM
  relative viability: 0.471
SW 900; first compound 6.325 µM
  relative viability: 0.362
SW 900; first compound 20 µM
  relative viability: 0.0628
UMC-11; first compound 0.2 µM
  relative viability: 0.478
UMC-11; first compound 0.6325 µM
  relative viability: 0.46
UMC-11; first compound 2 µM
  relative viability: 0.432
UMC-11; first compound 6.325 µM
  relative viability: 0.485
UMC-11; first compound 20 µM
  relative viability: 0.444

Source: the supplement of paper PMC10307832
